Measurements: BindingDB's records for doi:10.1124/jpet.102.047092 (Case Western Reserve University, 2003)

Columns and labels:
[1] = target: T1, 5-hydroxytryptamine receptor 1A (Homo sapiens, UniProt P08908)
T1 sequence (P08908 whole entry): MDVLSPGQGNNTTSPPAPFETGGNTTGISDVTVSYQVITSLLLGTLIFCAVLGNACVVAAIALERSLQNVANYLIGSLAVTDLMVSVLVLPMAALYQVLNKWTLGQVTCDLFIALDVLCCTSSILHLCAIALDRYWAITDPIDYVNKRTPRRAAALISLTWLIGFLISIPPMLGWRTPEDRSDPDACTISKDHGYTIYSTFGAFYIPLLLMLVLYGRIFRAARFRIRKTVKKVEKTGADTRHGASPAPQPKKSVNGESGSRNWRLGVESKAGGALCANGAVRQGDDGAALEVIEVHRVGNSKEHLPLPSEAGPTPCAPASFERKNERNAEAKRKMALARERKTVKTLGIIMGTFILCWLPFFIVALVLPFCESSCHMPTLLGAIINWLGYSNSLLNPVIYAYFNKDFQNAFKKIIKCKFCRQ

[2] = target: Kappa-type opioid receptor (Cavia porcellus, UniProt P41144)
[3] = target: 5-hydroxytryptamine receptor 6 (Homo sapiens, UniProt P50406)
[4] = target: 5-hydroxytryptamine receptor 2A (Rattus norvegicus, UniProt P14842)
[5] = target: Sodium-dependent noradrenaline transporter (Homo sapiens, UniProt P23975)
[6] = target: 5-hydroxytryptamine receptor 7 (Homo sapiens, UniProt P34969)
D(1A) dopamine receptor = D(1A) dopamine receptor (Homo sapiens, UniProt P21728)
D(1B) dopamine receptor = D(1B) dopamine receptor (Homo sapiens, UniProt P21918)
[7] = target: Gamma-aminobutyric acid receptor subunit alpha-1 (Rattus norvegicus, UniProt P62813)
[8] = target: T2, Alpha-1B adrenergic receptor (Homo sapiens, UniProt P35368)
T2 sequence (P35368 whole entry): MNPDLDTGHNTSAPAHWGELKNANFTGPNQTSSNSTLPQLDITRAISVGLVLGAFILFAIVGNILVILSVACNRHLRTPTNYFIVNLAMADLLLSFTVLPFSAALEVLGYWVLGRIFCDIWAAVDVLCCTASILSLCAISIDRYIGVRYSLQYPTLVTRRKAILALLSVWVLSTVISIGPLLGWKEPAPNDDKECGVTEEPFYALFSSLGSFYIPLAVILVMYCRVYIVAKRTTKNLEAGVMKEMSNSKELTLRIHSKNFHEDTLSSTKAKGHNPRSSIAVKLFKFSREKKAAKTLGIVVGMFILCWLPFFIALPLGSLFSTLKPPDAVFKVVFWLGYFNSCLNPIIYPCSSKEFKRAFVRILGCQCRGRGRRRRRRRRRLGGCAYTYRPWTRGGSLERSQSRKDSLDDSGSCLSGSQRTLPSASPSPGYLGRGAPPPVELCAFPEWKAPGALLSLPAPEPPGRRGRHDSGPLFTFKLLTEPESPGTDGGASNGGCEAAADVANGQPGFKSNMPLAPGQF

D(4) dopamine receptor = target: T3, D(4) dopamine receptor (Rattus norvegicus, UniProt P30729)
T3 sequence (P30729 whole entry): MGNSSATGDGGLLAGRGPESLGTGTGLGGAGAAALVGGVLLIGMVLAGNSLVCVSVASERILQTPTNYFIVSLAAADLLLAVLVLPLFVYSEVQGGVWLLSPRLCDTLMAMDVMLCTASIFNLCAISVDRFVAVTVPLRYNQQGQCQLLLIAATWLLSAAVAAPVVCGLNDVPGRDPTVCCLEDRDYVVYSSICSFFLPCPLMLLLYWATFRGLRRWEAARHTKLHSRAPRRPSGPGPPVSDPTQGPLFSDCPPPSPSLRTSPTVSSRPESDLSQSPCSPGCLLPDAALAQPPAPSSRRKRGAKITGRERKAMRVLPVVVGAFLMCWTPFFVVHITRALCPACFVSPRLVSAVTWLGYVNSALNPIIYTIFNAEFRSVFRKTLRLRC

[9] = target: T4, Muscarinic acetylcholine receptor M5 (Homo sapiens, UniProt P08912)
T4 sequence (P08912 whole entry): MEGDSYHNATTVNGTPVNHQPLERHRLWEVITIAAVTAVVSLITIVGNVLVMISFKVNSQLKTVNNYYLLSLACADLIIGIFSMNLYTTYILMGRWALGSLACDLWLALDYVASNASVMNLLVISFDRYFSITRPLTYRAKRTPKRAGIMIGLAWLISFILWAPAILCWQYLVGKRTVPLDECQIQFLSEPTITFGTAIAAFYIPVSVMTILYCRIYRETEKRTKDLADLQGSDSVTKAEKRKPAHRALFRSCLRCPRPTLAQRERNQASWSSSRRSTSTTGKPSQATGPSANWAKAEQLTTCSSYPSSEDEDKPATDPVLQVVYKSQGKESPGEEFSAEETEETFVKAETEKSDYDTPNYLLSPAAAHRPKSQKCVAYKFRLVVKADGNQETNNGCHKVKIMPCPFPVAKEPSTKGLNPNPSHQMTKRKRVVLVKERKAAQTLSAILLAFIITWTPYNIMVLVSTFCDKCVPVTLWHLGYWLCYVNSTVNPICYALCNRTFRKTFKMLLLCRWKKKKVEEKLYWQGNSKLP

Measured: Ki

5-hydroxytryptamine receptor 7, sequence (P34969 whole entry): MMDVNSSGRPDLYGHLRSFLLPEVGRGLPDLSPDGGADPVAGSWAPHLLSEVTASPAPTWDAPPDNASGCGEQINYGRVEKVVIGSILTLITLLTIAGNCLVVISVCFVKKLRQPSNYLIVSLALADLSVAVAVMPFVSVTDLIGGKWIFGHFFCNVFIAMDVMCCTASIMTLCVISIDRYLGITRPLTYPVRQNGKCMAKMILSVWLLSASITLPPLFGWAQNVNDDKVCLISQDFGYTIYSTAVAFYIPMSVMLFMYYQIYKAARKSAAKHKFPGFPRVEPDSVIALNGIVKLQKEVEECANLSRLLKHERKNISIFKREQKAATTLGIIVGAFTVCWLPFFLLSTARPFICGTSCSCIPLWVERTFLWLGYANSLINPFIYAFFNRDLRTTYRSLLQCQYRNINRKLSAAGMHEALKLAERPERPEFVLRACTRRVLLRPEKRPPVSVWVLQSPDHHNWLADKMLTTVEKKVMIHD
Gamma-aminobutyric acid receptor subunit alpha-1, sequence (P62813 whole entry): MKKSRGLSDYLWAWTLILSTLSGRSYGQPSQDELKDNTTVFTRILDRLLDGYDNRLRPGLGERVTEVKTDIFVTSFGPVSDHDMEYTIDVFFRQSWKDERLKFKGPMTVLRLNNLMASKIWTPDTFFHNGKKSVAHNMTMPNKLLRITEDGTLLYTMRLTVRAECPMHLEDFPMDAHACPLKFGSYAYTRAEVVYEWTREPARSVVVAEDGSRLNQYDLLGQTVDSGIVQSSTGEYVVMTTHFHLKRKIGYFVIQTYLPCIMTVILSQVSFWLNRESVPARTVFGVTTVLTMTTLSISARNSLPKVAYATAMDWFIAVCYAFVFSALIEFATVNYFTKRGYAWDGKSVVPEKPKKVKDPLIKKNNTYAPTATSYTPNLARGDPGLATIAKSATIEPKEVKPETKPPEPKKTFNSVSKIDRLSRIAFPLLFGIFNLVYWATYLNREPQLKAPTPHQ
Kappa-type opioid receptor, sequence (P41144 whole entry): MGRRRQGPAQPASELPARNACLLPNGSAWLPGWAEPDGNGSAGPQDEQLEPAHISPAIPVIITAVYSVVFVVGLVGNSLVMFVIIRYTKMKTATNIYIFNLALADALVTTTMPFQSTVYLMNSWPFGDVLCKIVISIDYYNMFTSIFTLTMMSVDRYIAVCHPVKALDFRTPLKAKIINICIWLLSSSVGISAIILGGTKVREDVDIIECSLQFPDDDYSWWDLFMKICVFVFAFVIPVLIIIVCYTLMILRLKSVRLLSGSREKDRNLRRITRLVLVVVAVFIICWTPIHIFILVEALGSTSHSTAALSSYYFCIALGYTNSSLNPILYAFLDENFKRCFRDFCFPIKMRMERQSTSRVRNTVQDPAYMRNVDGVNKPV
5-hydroxytryptamine receptor 6, sequence (P50406 whole entry): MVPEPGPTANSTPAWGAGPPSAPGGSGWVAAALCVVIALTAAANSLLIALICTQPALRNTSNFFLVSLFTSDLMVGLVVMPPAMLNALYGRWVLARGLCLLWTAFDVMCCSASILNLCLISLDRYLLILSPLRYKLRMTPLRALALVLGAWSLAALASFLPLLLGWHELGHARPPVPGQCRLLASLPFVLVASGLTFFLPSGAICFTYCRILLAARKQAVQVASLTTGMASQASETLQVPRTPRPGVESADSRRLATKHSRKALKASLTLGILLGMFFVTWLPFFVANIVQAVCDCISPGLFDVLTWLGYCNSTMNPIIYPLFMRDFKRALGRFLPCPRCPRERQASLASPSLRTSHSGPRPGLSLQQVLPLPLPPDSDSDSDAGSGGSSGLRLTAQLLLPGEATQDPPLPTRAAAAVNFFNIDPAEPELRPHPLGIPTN
D(1B) dopamine receptor, sequence (P21918 whole entry): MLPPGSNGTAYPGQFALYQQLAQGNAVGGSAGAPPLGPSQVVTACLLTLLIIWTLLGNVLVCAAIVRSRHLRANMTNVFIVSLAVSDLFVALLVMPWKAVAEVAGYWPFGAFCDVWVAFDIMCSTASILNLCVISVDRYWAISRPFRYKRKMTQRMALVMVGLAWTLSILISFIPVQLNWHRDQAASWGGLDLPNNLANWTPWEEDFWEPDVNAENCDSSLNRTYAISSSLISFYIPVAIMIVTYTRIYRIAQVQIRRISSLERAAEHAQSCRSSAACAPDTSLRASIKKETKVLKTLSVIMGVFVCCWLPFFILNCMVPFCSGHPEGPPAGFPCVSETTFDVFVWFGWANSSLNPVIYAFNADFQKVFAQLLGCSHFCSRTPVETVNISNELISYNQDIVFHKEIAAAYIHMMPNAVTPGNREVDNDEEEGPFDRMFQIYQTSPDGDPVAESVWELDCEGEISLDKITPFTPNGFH
Sodium-dependent noradrenaline transporter, sequence (P23975 whole entry): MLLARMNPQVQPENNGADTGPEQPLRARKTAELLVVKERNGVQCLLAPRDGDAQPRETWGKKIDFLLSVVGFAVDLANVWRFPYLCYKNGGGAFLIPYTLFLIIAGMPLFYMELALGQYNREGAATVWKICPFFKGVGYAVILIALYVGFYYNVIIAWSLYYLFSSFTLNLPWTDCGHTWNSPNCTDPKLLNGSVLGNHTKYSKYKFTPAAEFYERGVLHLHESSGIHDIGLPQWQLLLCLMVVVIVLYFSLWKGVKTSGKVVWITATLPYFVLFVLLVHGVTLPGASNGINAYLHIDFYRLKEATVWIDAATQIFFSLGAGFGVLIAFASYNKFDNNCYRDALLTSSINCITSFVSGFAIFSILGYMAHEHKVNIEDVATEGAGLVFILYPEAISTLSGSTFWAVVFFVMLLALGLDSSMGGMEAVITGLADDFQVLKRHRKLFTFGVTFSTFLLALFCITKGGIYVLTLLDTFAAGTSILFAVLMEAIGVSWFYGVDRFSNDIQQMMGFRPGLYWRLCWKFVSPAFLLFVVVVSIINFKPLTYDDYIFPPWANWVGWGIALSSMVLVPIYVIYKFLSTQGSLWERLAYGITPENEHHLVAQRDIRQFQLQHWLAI
5-hydroxytryptamine receptor 2A, sequence (P14842 whole entry): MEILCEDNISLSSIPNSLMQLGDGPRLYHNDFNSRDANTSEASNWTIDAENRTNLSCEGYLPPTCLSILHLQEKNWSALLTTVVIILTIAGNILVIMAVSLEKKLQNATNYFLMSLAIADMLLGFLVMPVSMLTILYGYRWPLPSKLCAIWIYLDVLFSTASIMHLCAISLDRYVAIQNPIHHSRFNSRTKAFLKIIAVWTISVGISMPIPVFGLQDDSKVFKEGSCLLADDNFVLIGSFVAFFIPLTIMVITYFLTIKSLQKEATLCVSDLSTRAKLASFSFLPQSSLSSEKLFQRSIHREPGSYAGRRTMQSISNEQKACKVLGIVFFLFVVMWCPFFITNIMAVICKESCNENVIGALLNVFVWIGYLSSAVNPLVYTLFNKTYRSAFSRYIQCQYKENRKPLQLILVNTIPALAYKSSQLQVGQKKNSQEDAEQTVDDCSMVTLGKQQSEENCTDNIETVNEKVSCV
D(1A) dopamine receptor, sequence (P21728 whole entry): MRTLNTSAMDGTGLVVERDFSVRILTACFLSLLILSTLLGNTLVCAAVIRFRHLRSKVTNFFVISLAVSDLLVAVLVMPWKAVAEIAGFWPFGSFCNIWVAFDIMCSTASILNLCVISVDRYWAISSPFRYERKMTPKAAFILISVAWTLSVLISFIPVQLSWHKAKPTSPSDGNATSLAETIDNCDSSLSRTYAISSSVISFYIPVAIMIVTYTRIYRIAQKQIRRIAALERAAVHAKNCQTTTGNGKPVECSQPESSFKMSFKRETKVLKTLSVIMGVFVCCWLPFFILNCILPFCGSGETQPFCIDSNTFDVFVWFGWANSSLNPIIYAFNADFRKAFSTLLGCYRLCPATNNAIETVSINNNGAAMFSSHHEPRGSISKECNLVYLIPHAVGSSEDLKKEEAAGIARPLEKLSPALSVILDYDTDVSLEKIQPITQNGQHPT

N[C@@H](CCS(=O)(=O)O)C(=O)O (racemic)
> 10 µM: all assays above

N[C@@H](CCS)C(=O)O (racemic) [CAS_778]
> 10 µM: all assays above

NC(CS(=O)O)C(=O)O (centres undefined) [CAS_109]
> 10 µM: all assays above

NC(CSSCC(N)C(=O)O)C(=O)O (centres undefined) [CAS_595]
> 10 µM: all assays above

N[C@@H](CS)C(=O)O [CAS_5862]
> 10 µM: all assays above

CSCC[C@@H](N)C(=O)O [CAS_6137]
> 10 µM: all assays above

N[C@H](CCS(=O)(=O)O)C(=O)O [D-homocysteic acid]
> 10 µM: all assays above

N[C@H](CCS(=O)O)C(=O)O [D-homocysteine sulfinic acid]
> 10 µM: all assays above

N[C@@H]1CCSC1=O [D-homocysteine thiolactone]
> 10 µM: all assays above

N[C@H](CS(=O)(=O)O)C(=O)O [L-cysteic acid]
> 10 µM: all assays above

N[C@@H](CCS(=O)O)C(=O)O [L-homocysteine sulfinic acid]
> 10 µM: all assays above

N[C@H]1CCSC1=O [NSC_134505]
> 10 µM: all assays above
